ChEMBL document CHEMBL1129279, “Structure-antigastrin activity relationships of new spiroglumide amido acid derivatives” (J Med Chem, 1996)

Columns and labels:
[1] = target: T1, Cholecystokinin receptor type A (Rattus norvegicus, UniProt P30551); assay: Inhibition of [125I]CCK-8 binding to Cholecystokinin type A receptor in rat pancreas
T1 sequence (P30551 whole entry): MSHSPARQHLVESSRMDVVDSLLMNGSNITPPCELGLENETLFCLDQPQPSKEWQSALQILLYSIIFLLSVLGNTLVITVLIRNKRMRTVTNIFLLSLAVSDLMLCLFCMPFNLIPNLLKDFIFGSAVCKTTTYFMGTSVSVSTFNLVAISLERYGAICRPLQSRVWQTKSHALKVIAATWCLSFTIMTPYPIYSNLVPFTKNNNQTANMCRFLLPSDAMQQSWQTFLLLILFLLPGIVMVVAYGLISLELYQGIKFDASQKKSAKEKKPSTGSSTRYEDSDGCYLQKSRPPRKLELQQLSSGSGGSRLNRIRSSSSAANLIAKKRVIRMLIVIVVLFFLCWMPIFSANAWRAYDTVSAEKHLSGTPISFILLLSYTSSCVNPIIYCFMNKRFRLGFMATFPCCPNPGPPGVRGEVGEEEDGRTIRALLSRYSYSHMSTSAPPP

[2] = target: Cholecystokinin receptor (Homo sapiens) (UniProt P32239+P32238); assay: Concentration required to inhibit CCK-A receptor/ Concentration required to inhibit CCK-B receptor; format: protein assay
Cholecystokinin receptor (Homo sapiens), sequence (P32238 whole entry, looked up): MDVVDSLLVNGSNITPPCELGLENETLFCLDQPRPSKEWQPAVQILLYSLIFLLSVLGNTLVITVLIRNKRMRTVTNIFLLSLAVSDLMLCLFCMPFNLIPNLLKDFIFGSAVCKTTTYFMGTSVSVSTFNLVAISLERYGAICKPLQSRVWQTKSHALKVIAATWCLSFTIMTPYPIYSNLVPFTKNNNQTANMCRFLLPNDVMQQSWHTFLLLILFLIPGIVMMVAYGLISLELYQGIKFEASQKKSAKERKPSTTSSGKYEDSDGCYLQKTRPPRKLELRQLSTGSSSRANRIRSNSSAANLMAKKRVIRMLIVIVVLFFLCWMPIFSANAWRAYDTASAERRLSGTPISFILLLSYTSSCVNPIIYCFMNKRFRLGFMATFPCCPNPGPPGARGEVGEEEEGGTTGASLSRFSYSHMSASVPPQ
Cholecystokinin receptor (Homo sapiens), sequence (P32239 whole entry, looked up): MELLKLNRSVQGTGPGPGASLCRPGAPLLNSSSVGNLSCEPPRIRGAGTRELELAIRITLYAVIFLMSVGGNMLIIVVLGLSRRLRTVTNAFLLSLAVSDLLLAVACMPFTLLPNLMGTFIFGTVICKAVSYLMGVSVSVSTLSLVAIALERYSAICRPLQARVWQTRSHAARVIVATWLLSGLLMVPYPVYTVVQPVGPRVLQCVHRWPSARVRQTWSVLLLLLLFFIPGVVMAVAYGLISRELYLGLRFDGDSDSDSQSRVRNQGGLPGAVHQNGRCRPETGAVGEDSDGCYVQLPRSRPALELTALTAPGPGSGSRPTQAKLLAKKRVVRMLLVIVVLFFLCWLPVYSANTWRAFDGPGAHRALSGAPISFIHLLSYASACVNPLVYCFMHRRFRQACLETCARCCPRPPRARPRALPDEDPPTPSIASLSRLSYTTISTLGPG

[3] = target: Gastrin/cholecystokinin type B receptor (Cavia porcellus); assay: Inhibition of binding of [3H]N-Me-N-Leu-CCK-8 to cholecystokinin type B receptor in guinea pig brain cortex

SMILES: CN(C(=O)CCC(NC(=O)c1cc(Cl)cc(Cl)c1)C(=O)N1CCC2(CCCC2)CC1)[C@H](Cc1c[nH]c2ccccc12)C(=O)O (stereo partly drawn)
- IC50 [1]: 3.4 µM

SMILES: O=C(O)CC[C@@H](NC(=O)CCC(NC(=O)c1cc(Cl)cc(Cl)c1)C(=O)N1CCC2(CCCC2)CC1)C(=O)NCCC12C[C@H]3C[C@@H](C1)C[C@@H](C2)C3 (stereo partly drawn)
- IC50 (Oryctolagus cuniculus): Not Active

SMILES: O=C(O)CC[C@H](NC(=O)CCC(NC(=O)c1cc(Cl)cc(Cl)c1)C(=O)N1CCC2(CCCC2)CC1)C(=O)Nc1cccc2ccccc12 (stereo partly drawn)
- Ratio [2]: 369
- IC50 [1]: 7.38 µM

SMILES: O=C(O)CC[C@@H](NC(=O)CCC(NC(=O)c1cc(Cl)cc(Cl)c1)C(=O)N1CCC2(CCCC2)CC1)C(=O)NC1[C@H]2C[C@@H]3C[C@@H](C[C@H]1C3)C2 (stereo partly drawn)
- IC50 (Oryctolagus cuniculus): Not Active

SMILES: O=C(O)CC[C@@H](NC(=O)c1cc(Cl)cc(Cl)c1)C(=O)N1CCC2(CCCC2)CC1 [SPIROGLUMIDE]
- Ratio [2]: 9.6
- IC50 [3]: 1.4 µM

SMILES: O=C(CCC(NC(=O)c1cc(Cl)cc(Cl)c1)C(=O)N1CCC2(CCCC2)CC1)N[C@@H](Cc1ccccc1)C(=O)O (stereo partly drawn)
- IC50 (Oryctolagus cuniculus): Not Active
